{"source": "patent US20050079228A1", "about": "“Clear, stable topical compositions of clarithromycin and processes for their preparation” (priority 2003, published 2005)", "key": {"[1]": {"assay": "Solubility of clarithromycin in non-aqueous media on complexation with zinc salt", "assay_type": "physicochemical", "settings": "molar ratio about 1:0.2 to about 1:2", "text": "Clarithromycin and the zinc salt are preferably combined in a molar ratio ranging from about 1:0.2 to about 1:2. This ratio permits the occurrence of effective complexation of the zinc and clarithromycin."}, "gram-positive bacteria": {"test_system": "gram-positive bacteria", "settings": "disclosed in U.S. Pat. No. 4,331,803; cited from earlier work"}}}
{"smiles": "CC[C@H]1OC(=O)[C@H](C)[C@@H](O[C@H]2C[C@@](C)(OC)[C@@H](O)[C@H](C)O2)[C@H](C)[C@@H](O[C@@H]2O[C@H](C)C[C@H](N(C)C)[C@H]2O)[C@](C)(OC)C[C@@H](C)C(=O)[C@H](C)[C@@H](O)[C@]1(C)O", "note": "[clarithromycin]", "values": [{"measurement": "Solubility of clarithromycin in a non-aqueous media", "setting": "[1]", "value": "increases the solubility"}, {"measurement": "Antibacterial activity against gram-positive bacteria", "setting": "gram-positive bacteria", "value": "strong antibacterial activity"}]}
